Measured values taken from ChEMBL document CHEMBL6127007, “Development of visible-light-activatable photocaged PROTACs” (Eur J Med Chem, 2024).
The source made the active and inactive calls. The calls are words filed in the database; no cut-off is given here.

Key:
[1] = target: T1, Protein cereblon/Bromodomain-containing protein 4 (Homo sapiens, UniProt O60885+Q96SW2); assay: Photocaged-PROTAC activity at CRBN/BRD4 in human Ramos cells assessed as […] Brd4 protein degradation under dark condition pre-incubated for 12 hrs by Western blot analysis; type: cell-based
T1 sequence (Q96SW2 whole entry, looked up, other chains not shown): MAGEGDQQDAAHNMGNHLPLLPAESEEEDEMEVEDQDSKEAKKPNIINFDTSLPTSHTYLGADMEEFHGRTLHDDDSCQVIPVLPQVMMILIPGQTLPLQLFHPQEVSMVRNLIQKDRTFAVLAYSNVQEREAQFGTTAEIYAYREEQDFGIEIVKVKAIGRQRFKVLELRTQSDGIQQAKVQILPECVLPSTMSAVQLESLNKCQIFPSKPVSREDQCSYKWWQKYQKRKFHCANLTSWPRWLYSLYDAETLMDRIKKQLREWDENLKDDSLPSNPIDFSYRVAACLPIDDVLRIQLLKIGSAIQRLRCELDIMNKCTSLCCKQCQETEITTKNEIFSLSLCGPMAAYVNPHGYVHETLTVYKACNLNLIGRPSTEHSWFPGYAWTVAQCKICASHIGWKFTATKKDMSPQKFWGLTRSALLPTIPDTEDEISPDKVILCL

[2] = target: T1, Protein cereblon/Bromodomain-containing protein 4; assay: Photocaged-PROTAC activity at CRBN/BRD4 in human Ramos cells assessed as […] Brd4 protein degradation pre-incubated for 2 hrs followed by UV light irradiation at 365 nM for 3 mins and measured after 12 hrs by Western blot analysis; type: cell-based
[3] = Photoactivation of the Photocaged-PROTAC assessed as uncaging rate measuring dBET1 release under visible light measured at 1 min by HPLC analysis
[4] = target: T1, Protein cereblon/Bromodomain-containing protein 4; assay: Photocaged-PROTAC activity at CRBN/BRD4 in human Ramos cells assessed as Brd4 protein degradation at 0.03 to 10 uM pre-incubated for 2 hrs under dark followed by 365 nm UV light irradiation for 3 mins and measured after 12 hrs by Western blot analysis; type: cell-based; settings: dose 0.03-10 µM
[5] = target: T1, Protein cereblon/Bromodomain-containing protein 4; assay: Photocaged-PROTAC activity at CRBN/BRD4 in human Ramos cells assessed as reduction in Brd4 protein level at 0.03 to 10 uM pre-incubated for 2 hrs followed by visible light irradiation at 405 nm for 3 mins and measured after 12 hrs by Western blot analysis; type: cell-based; settings: dose 0.03-10 µM, time 14.0 hrs
[6] = test system: NAMALVA; assay: Antiproliferative activity against human NAMALVA cells assessed as reduction in cell viability upto 10 uM measured after 72 hrs by CellTiter-Glo luminescent assay; type: functional, cell-based
[7] = test system: NAMALVA; assay: Antiproliferative activity against human NAMALVA cells assessed as reduction in cell viability pre-incubated for 2 hrs under dark followed by visible light irradiation for 3 mins at 405 nm and measured after 72 hrs under dark condition by CellTiter-Glo luminescent assay; type: functional, cell-based; settings: light or radiation study
[8] = test system: NAMALVA; assay: Antiproliferative activity against human NAMALVA cells assessed as reduction in cell viability upto 10 uM measured after 72 hrs under dark condition by CellTiter-Glo luminescent assay; type: functional, cell-based
[9] = target: T1, Protein cereblon/Bromodomain-containing protein 4; assay: Photocaged-PROTAC activity at CRBN/BRD4 in human Ramos cells assessed as […] Brd4 protein degradation pre-incubated for 2 hrs followed by visible light irradiation at 405 nM for 3 mins and measured after 12 hrs by Western blot analysis; type: cell-based
[10] = target: T1, Protein cereblon/Bromodomain-containing protein 4; assay: Photocaged-PROTAC activity at CRBN/BRD4 in human Ramos cells assessed as Brd4 protein degradation upto 3 uM pre-incubated for 2 hrs under dark followed by 365 nm UV light irradiation for 3 mins and measured after 12 hrs by Western blot analysis; type: cell-based; settings: time 14.0 hrs
[11] = target: T1, Protein cereblon/Bromodomain-containing protein 4; assay: Photocaged-PROTAC activity at CRBN/BRD4 in human Ramos cells assessed as reduction in Brd4 protein level at 0.03 to 10 uM incubated for 12 hrs under dark by Western blot analysis; type: cell-based; settings: dose 0.03-10 µM
[12] = target: T1, Protein cereblon/Bromodomain-containing protein 4; assay: Photocaged-PROTAC activity at CRBN/BRD4 in human Ramos cells assessed as reduction in Brd4 protein level at 0.03 to 10 uM pre-incubated for 2 hrs under dark followed by UV light irradiation at 3 mW/cm^2 for 3 mins and measured after 12 hrs by Western blot analysis; type: cell-based; settings: dose 0.03-10 µM, time 14.0 hrs
[13] = target: T1, Protein cereblon/Bromodomain-containing protein 4; assay: Photocaged-PROTAC activity at CRBN/BRD4 in human Ramos cells assessed as Brd4 protein degradation at 0.03 to 10 uM incubated for 12 hrs under dark by Western blot analysis; type: cell-based; settings: dose 0.03-10 µM
[14] = target: T1, Protein cereblon/Bromodomain-containing protein 4; assay: Photocaged-PROTAC activity at CRBN/BRD4 in human Ramos cells assessed as Brd4 protein degradation at 30 nM pre-incubated for 2 hrs under dark followed by 365 nm UV light irradiation for 3 mins and measured after 12 hrs by Western blot analysis; type: cell-based; settings: time 14.0 hrs
[15] = target: T1, Protein cereblon/Bromodomain-containing protein 4; assay: Photocaged-PROTAC activity at CRBN/BRD4 in human Ramos cells assessed as Brd4 protein degradation at 10000 nM incubated for 12 hrs under dark by Western blot analysis; type: cell-based

SMILES	DC50 [1]	DC50 [2]	Activity [3]	DC50 [9]	IC50 [7]	IC50 [8]	other results
Cc1sc2c(c1C)C(c1ccc(Cl)cc1)=N[C@@H](CC(=O)N(CCCCNC(=O)COc1cccc3c1C(=O)N(C1CCC(=O)NC1=O)C3=O)C(C)c1cc3c(cc1[N+](=O)[O-])oc1ccccc13)c1nnc(C)n1-2 (some centres not stated)			Active	65 nM	291 nM	> 10000 nM	Activity [5]: Active; Activity [6]: inactive
Cc1sc2c(c1C)C(c1ccc(Cl)cc1)=N[C@@H](CC(=O)NCCCCNC(=O)COc1cccc3c1C(=O)N(C1CCC(=O)N(OCc4cc5oc6ccccc6c5cc4[N+](=O)[O-])C1=O)C3=O)c1nnc(C)n1-2 (some centres not stated)			Active	108 nM	741 nM	> 2350 nM	Activity [5]: Active
Cc1sc2c(c1C)C(c1ccc(Cl)cc1)=N[C@@H](CC(=O)NCCCCNC(=O)COc1cccc3c1C(=O)N(C1CCC(=O)NC1=O)C3=O)c1nnc(C)n1-2 (some centres not stated)					317 nM		
Cc1ncsc1-c1ccc(CNC(=O)[C@@H]2C[C@@H](O)CN2C(=O)[C@@H](NC(=O)COCCOCCOCCNC(=O)C[C@@H]2N=C(c3ccc(Cl)cc3)c3c(sc(C)c3C)-n3c(C)nnc32)C(C)(C)C)cc1					170 nM		
CCNC(=O)c1sc2c(c1C)C(c1ccc(Cl)cc1)=N[C@@H](CC(=O)NCCCCNC(=O)COc1cccc3c1C(=O)N(C1CCC(=O)NC1=O)C3=O)c1nnc(C)n1-2 (some centres not stated)							Activity [12]: Active
Cc1sc2c(c1C)C(c1ccc(Cl)cc1)=N[C@@H](CC(=O)N(CCCCNC(=O)COc1cccc3c1C(=O)N(C1CCC(=O)NC1=O)C3=O)Cc1cc3c(cc1[N+](=O)[O-])oc1cc(N(C)C)ccc13)c1nnc(C)n1-2 (some centres not stated)			Active	62 nM	476 nM	> 10000 nM	Activity [5]: Active; Activity [6]: inactive

Further lines, with some results ahead:

DC50 [1]	DC50 [2]	Activity [3]	DC50 [9]	SMILES	IC50 [7]	IC50 [8]	other results
< 30 nM	< 30 nM	Active		COc1cc(COC(=O)O[C@@H]2C[C@@H](C(=O)NCc3ccc(-c4scnc4C)cc3)N(C(=O)[C@@H](NC(=O)COCCOCCOCCOC(=O)C[C@@H]3N=C(c4ccc(Cl)cc4)c4c(sc(C)c4C)-n4c(C)nnc43)C(C)(C)C)C2)c([N+](=O)[O-])cc1OC			Activity [4]: Active
			< 30 nM	Cc1ncsc1-c1ccc(CN(Cc2cc3c(cc2[N+](=O)[O-])oc2ccccc23)C(=O)[C@@H]2C[C@@H](O)CN2C(=O)[C@@H](NC(=O)COCCOCCOCCOC(=O)C[C@@H]2N=C(c3ccc(Cl)cc3)c3c(sc(C)c3C)-n3c(C)nnc32)C(C)(C)C)cc1	140 nM	1170 nM	Activity [10]: Active
> 10000 nM	2310 nM			COc1cc(CN2C(=O)CCC(N3C(=O)c4cccc(OCC(=O)NCCCCNC(=O)C[C@@H]5N=C(c6ccc(Cl)cc6)c6c(sc(C)c6C)-n6c(C)nnc65)c4C3=O)C2=O)c([N+](=O)[O-])cc1OC (some centres not stated)			Activity [11]: inactive
> 10000 nM	148 nM			COc1cc(CON2C(=O)CCC(N3C(=O)c4cccc(OCC(=O)NCCCCNC(=O)C[C@@H]5N=C(c6ccc(Cl)cc6)c6c(sc(C)c6C)-n6c(C)nnc65)c4C3=O)C2=O)c([N+](=O)[O-])cc1OC (some centres not stated)			Activity [11]: inactive; Activity [12]: Active
> 10000 nM	> 10000 nM			COc1cc(CN(C(=O)COCCOCCOCCOC(=O)C[C@@H]2N=C(c3ccc(Cl)cc3)c3c(sc(C)c3C)-n3c(C)nnc32)[C@H](C(=O)N2C[C@H](O)C[C@H]2C(=O)NCc2ccc(-c3scnc3C)cc2)C(C)(C)C)c([N+](=O)[O-])cc1OC			Activity [13]: inactive; Activity [4]: inactive
59 nM	55 nM			COc1cc(CN(CCCCNC(=O)C[C@@H]2N=C(c3ccc(Cl)cc3)c3c(sc(C)c3C)-n3c(C)nnc32)C(=O)COc2cccc3c2C(=O)N(C2CCC(=O)NC2=O)C3=O)c([N+](=O)[O-])cc1OC (some centres not stated)			Activity [11]: Active
> 10000 nM	1980 nM			CCN(Cc1cc(OC)c(OC)cc1[N+](=O)[O-])C(=O)c1sc2c(c1C)C(c1ccc(Cl)cc1)=N[C@@H](CC(=O)NCCCCNC(=O)COc1cccc3c1C(=O)N(C1CCC(=O)NC1=O)C3=O)c1nnc(C)n1-2 (some centres not stated)			Activity [12]: Active
> 10000 nM	< 30 nM	Active		COc1cc(CN(Cc2ccc(-c3scnc3C)cc2)C(=O)[C@@H]2C[C@@H](O)CN2C(=O)[C@@H](NC(=O)COCCOCCOCCOC(=O)C[C@@H]2N=C(c3ccc(Cl)cc3)c3c(sc(C)c3C)-n3c(C)nnc32)C(C)(C)C)c([N+](=O)[O-])cc1OC			Activity [14]: Active; Activity [15]: inactive; Activity [4]: Active
		Active	32 nM	Cc1sc2c(c1C)C(c1ccc(Cl)cc1)=N[C@@H](CC(=O)N(CCCCNC(=O)COc1cccc3c1C(=O)N(C1CCC(=O)NC1=O)C3=O)Cc1cc3oc4ccccc4c3cc1[N+](=O)[O-])c1nnc(C)n1-2 (some centres not stated)	287 nM	> 10000 nM	Activity [5]: Active; Activity [6]: inactive
